Molecular target: T1, endothelial lipase (EL) (Homo sapiens, UniProt Q9Y5X9)
T1 construct: transformed by RAGE technology (Athersys) to overexpress endogenous EL; endogenous in cells; conditioned medium used as the enzyme source
T1 sequence (Q9Y5X9 21-500): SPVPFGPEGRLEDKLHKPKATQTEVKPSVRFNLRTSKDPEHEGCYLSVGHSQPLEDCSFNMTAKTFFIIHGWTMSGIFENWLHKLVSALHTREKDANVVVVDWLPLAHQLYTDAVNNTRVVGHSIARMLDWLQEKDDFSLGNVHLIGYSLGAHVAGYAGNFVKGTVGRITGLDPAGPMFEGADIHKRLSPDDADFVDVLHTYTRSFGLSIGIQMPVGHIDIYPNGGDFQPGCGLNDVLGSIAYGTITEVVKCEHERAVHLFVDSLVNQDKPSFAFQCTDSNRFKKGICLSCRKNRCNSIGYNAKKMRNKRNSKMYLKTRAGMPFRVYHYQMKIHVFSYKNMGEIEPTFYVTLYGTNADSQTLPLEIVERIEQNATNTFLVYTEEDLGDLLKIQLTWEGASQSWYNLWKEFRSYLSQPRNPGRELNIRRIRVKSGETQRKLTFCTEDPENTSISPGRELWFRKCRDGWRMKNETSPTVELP
Test: Endothelial lipase (EL) enzymatic assay with fluorescent substrate A10070 in DMPG vesicles
Format: biochemical
Conditions: conditioned media from HT-1080 cells overexpressing endogenous EL; 20 min preincubation at 37° C.; FRET substrate A10070; read-out: HLE_EL_CRC IC50
Method: Endothelial lipase activity was measured using a fluorescent substrate, A10070, (Invitrogen, CA) doped into an artificial vesicle containing DMPG (Avanti Polar Lipids) as the excipient. Vesicles were prepared by combining 285 uL of 1 mM DMPG in a 1:1 mixture of MeOH and CHCl3 with 15 uL of 1 mM A10070 in a 1:1 mixture of MeOH and CHCl3. The mixture was dried under nitrogen and resuspended in 150 uL of 50 mM HEPES pH 8.0 buffer containing 100 mM NaCl and 0.2 mM EDTA. The sample was allowed to sit at rt for 15 min and then was sonicated 3×4 mins on ice with a Branson Sonicator using duty cycle 1. This preparation provides vesicles with a mole fraction of 0.05 for the FRET substrate.
The enzymatic assay was measured using white, opaque 96-well half area plates. Each well contained 60 uL of assay buffer (50 mM HEPES pH 8.0, 50 mM NaCl and 1 mM CaCl2) and 2 ul of a DMSO solution containing compound of interest. Conditioned media obtained from HT-1080 cells, which were transformed by RAGE technology (Athersys) to overexpress endogenous EL, was added and the reaction was allowed to incubate for 20 min at 37° C. with gentle agitation. The reaction was started by the addition of 20 uL of a 1:4 dilution of vesicles. The final total reaction volume was 100 uL. The reaction rates were measured on a Gemini plate reader with an excitation wavelength of 488 nm and a emission of 530 nm. Readings were taken every 20 seconds for 10 min with agitation between each reading. The slope of the linear portion of the readout was used to calculate the rate of the reaction.

SMILES	IC50 [nM]
Cn1c(=O)c(O)c(C(=O)NCCCc2ccc(Cl)c(Cl)c2)c2cc(Cl)ccc21 [Example 3, 6-Chloro-N-(3-(3,4-dichlorophenyl)propyl)-3-hydroxy-1-methyl-2-oxo-1,2-dihydroquinoline-4-carboxamide]	10
COC[C@H](Cc1ccccc1)NC(=O)c1c(O)c(=O)n(C)c2ccccc12 [Example 96, (S)-3-hydroxy-N-(1-methoxy-3-phenylpropan-2-yl)-1-methyl-2-oxo-1,2-dihydroquinoline-4-carboxamide]	8530
Cn1c(=O)c(O)c(C(=O)NCCc2ccc(-c3ccc(F)cc3)cc2)c2ccccc21 [Example 151, N-(2-(4′-fluorobiphenyl-4-yl)ethyl)-3-hydroxy-1-methyl-2-oxo-1,2-dihydroquinoline-4-carboxamide]	75
O=C(NCc1cccc(-c2ccc(Cl)cc2)c1)c1c(O)c(=O)[nH]c2ccc(OC(F)(F)F)cc12 [Example 42, N-((4′-chlorobiphenyl-3-yl)methyl)-3-hydroxy-2-oxo-6-(trifluoromethoxy)-1,2-dihydroquinoline-4-carboxamide]	96
Cn1c(=O)c(O)c(C(=O)NCCCc2ccccc2Cl)c2ccccc21 [Example 27, N-(3-(2-chlorophenyl)propyl)-3-hydroxy-1-methyl-2-oxo-1,2-dihydroquinoline-4-carboxamide]	35
O=C(NCCCOc1ccccc1C(F)(F)F)c1c(O)c(=O)[nH]c2ccc(OC(F)(F)F)cc12 [Example 50, 3-hydroxy-2-oxo-6-(trifluoromethoxy)-N-(3-(2-(trifluoromethyl)phenoxy)propyl)-1,2-dihydroquinoline-4-carboxamide]	12
Cn1c(=O)c(O)c(C(=O)NCc2cccc(-n3cccc3)c2)c2ccccc21 [Example 172, N-(3-(1H-pyrrol-1-yl)benzyl)-3-hydroxy-1-methyl-2-oxo-1,2-dihydroquinoline-4-carboxamide]	10
Cn1c(=O)c(O)c(C(=O)NC(Cc2ccccc2)c2ccccc2)c2ccccc21 (stereo not shown) [Example 155, N-(1,2-diphenylethyl)-3-hydroxy-1-methyl-2-oxo-1,2-dihydroquinoline-4-carboxamide]	3120
Cn1c(=O)c(O)c(C(=O)NCc2ccc(C(F)(F)F)cc2)c2ccccc21 [Example 105, 3-hydroxy-1-methyl-2-oxo-N-(4-(trifluoromethyl)benzyl)-1,2-dihydroquinoline-4-carboxamide]	100
O=C(NCCCc1ccc(Cl)cc1Cl)c1c(O)c(=O)[nH]c2ccc(OC(F)(F)F)cc12 [Example 28, N-(3-(2,4-dichlorophenyl)propyl)-3-hydroxy-2-oxo-6-(trifluoromethoxy)-1,2-dihydroquinoline-4-carboxamide]	35
Cn1c(=O)c(O)c(C(=O)NCCc2ccc(C(F)(F)F)cc2)c2ccccc21 [Example 92, 3-hydroxy-1-methyl-2-oxo-N-(4-(trifluoromethyl)phenethyl)-1,2-dihydroquinoline-4-carboxamide]	84
Cn1c(=O)c(O)c(C(=O)NCCCN2CCCC2=O)c2ccccc21 [Example 103, 3-hydroxy-1-methyl-2-oxo-N-(3-(2-oxopyrrolidin-1-yl)propyl)-1,2-dihydroquinoline-4-carboxamide]	9360
Cn1c(=O)c(O)c(C(=O)NCc2nc3ccccc3s2)c2ccccc21 [Example 107, N-(benzo[d]thiazol-2-ylmethyl)-3-hydroxy-1-methyl-2-oxo-1,2-dihydroquinoline-4-carboxamide]	11100
O=C(NCC1CN(S(=O)(=O)c2ccc(Cl)c(Cl)c2)C1)c1c(O)c(=O)[nH]c2ccc(OC(F)(F)F)cc12 [Example 55, N-((1-(3,4-dichlorophenylsulfonyl)azetidin-3-yl)methyl)-3-hydroxy-2-oxo-6-(trifluoromethoxy)-1,2-dihydroquinoline-4-carboxamide]	25
Cn1c(=O)c(O)c(C(=O)NCc2ccccc2N2CCCC2)c2ccccc21 [Example 109, 3-hydroxy-1-methyl-2-oxo-N-(2-(pyrrolidin-1-yl)benzyl)-1,2-dihydroquinoline-4-carboxamide]	2910
Cn1c(=O)c(O)c(C(=O)NCCOc2ccc(Cl)cc2)c2ccccc21 [Example 26, N-(2-(4-chlorophenoxy)ethyl)-3-hydroxy-1-methyl-2-oxo-1,2-dihydroquinoline-4-carboxamide]	91
O=C(NCCCOc1c(Cl)cccc1Cl)c1c(O)c(=O)[nH]c2ccc(OC(F)(F)F)cc12 [Example 51, N-(3-(2,6-dichlorophenoxy)propyl)-3-hydroxy-2-oxo-6-(trifluoromethoxy)-1,2-dihydroquinoline-4-carboxamide]	40
Cn1c(=O)c(O)c(C(=O)NCCCOc2ccc(-c3ccccc3)cc2)c2ccccc21 [Example 133, N-(3-(biphenyl-4-yloxy)propyl)-3-hydroxy-1-methyl-2-oxo-1,2-dihydroquinoline-4-carboxamide]	10
C[C@@H](NC(=O)c1c(O)c(=O)n(C)c2ccccc12)c1cccc(-c2ccccc2)c1 [Example 64, (R)-N-(1-(biphenyl-3-yl)ethyl)-3-hydroxy-1-methyl-2-oxo-1,2-dihydroquinoline-4-carboxamide]	64
Cn1c(=O)c(O)c(C(=O)NCc2ccc(OC(F)(F)F)cc2)c2ccccc21 [Example 85, 3-hydroxy-1-methyl-2-oxo-N-(4-(trifluoromethoxy)benzyl)-1,2-dihydroquinoline-4-carboxamide]	43
Cn1c(=O)c(O)c(C(=O)NCc2ccccc2N2CCC(CO)CC2)c2ccccc21 [Example 141, 3-hydroxy-N-(2-(4-(hydroxymethyl)piperidin-1-yl)benzyl)-1-methyl-2-oxo-1,2-dihydroquinoline-4-carboxamide]	1700
Cn1c(=O)c(O)c(C(=O)NCc2cccc(OC(F)(F)F)c2)c2ccccc21 [Example 86, 3-hydroxy-1-methyl-2-oxo-N-(3-(trifluoromethoxy)benzyl)-1,2-dihydroquinoline-4-carboxamide]	37
O=C(NCCCc1ccc(Cl)c(Cl)c1)c1c(O)c(=O)[nH]c2ccccc12 [Example 5, N-(3-(3,4-dichlorophenyl)propyl)-3-hydroxy-2-oxo-1,2-dihydroquinoline-4-carboxamide]	11
Cn1c(=O)c(O)c(C(=O)NCCCc2ccc(Cl)cc2Cl)c2ccccc21 [Example 2, N-(3-(2,4-Dichlorophenyl)propyl)-3-hydroxy-1-methyl-2-oxo-1,2-dihydroquinoline-4-carboxamide]	13
COc1ccccc1OCCCNC(=O)c1c(O)c(=O)n(C)c2ccccc12 [Example 147, 3-hydroxy-N-(3-(2-methoxyphenoxy)propyl)-1-methyl-2-oxo-1,2-dihydroquinoline-4-carboxamide]	49
Cn1c(=O)c(O)c(C(=O)NCc2csc(-c3ccccc3)n2)c2ccccc21 [Example 90, 3-hydroxy-1-methyl-2-oxo-N-((2-phenylthiazol-4-yl)methyl)-1,2-dihydroquinoline-4-carboxamide]	83
Cn1c(=O)c(O)c(C(=O)NCCCc2ccc(Cl)c(Cl)c2)c2ccccc21 [Example 1, N-(3-(3,4-dichlorophenyl)propyl)-3-hydroxy-1-methyl-2-oxo-1,2-dihydroquinoline-4-carboxamide]	10
O=C(NCCCc1c(Cl)cccc1Cl)c1c(O)c(=O)[nH]c2ccc(OC(F)(F)F)cc12 [Example 43, N-(3-(2,6-dichlorophenyl)propyl)-3-hydroxy-2-oxo-6-(trifluoromethoxy)-1,2-dihydroquinoline-4-carboxamide]	70
